Measured values as given in patent US9056096B2, “Hyaluronic acid decomposition-promoting factor and inhibitor thereof” (Kao Corporation, priority 2010, dated 2015).

B1: IL-1α: cytokine, RA-related inflammatory mediator (protein, UniProt P01583 113-271, looked up)
Interleukin-1 alpha: SAPFSFLSNVKYNFMRIIKYEFILNDALNQSIIRANDQYLTAAALHNLDEAVKFDMGAYKSSKDDAKITVILRISKTQLYVTAQDEDQPVLLKEMPEIPKTITGSETNLLFFWETHGTKNYFTSVAHPNLFIATKQDYWVCLAGGPPSITDFQILENQA

What was measured:
KIAA1199/HEK293 cells = experiment: Inhibitor experiment: [3H]HA decomposition in HEK293 cells stably expressing KIAA1199; format: cell-based, human; conditions: preliminary treatment with inhibitor 3 hours, then 6 hours with [3H]HA
Procedure: Cells were cultured in a medium containing [^3H]HA (40,000 dpm/mL) to confluent. […] The medium was eluted with 0.5% NaCl at 0.65 mL/min, and fractions (each 2.55 mL) were collected. The radioactivity of each fraction was measured.
Cells were cultured in a medium containing G418, and stable transformants were selected.
Cells were incubated for 3 hours with an inhibitor at a predetermined concentration and then incubated for 6 hours with [^3H]HA in the presence of the inhibitor.
In order to investigate the hyaluronic acid decomposition mechanism by the mediation of KIAA1199, HEK293 cells (KIAA1199/HEK293), in which KIAA1199 is consistently expressed, were established.

KIAA1199 mRNA [1] = experiment: Induction of KIAA1199 mRNA expression in cultured RA synovial cells; format: cell-based, human; conditions: inflammatory mediator added to cultured RA synovial cells
Procedure: Western blotting was performed through a standard method. In real-time PCR, total RNA was separated by use of RNeasy (Qiagen), and cDNA was synthesized by means of High Capacity cDNA Archive kit (Applied Biosystems, Foster City, Calif.).
Meanwhile, PGE2 (i.e., an inflammatory mediator) and several cytokines such as IL-1, IL-6, and TNF-α are present at high levels in synovial fluid of RA patients. Therefore, whether or not expression of KIAA1199 in RA synovial cells is induced by such an inflammatory mediator was investigated.

[2] = system: cultured normal human skin fibroblasts (Detroit551); experiment: [3H]HA decomposition assay using cultured normal human skin fibroblasts; format: cell-based; conditions: for decomposition of hyaluronic acid by cultured fibroblasts: exogenously added [3H]HA, substance added to the culture
Procedure: Normal human skin fibroblasts (Detroit 551, ATCC (American Type Culture Collection), HS-27, NHDF) were cultured in an Eagle's minimal essential medium (MEM) (MP Biomedicals, Solon, Ohio) supplemented with essential amino acids, 1 mM sodium pyruvate, and 10% (vol/vol) fetal bovine serum (FBS) (JRH Biosciences, Kansas). HEK293, COS-7 cells, and human synovial fibroblasts (TOYOBO) were maintained in a Dulbecco's modified Eagle's medium (Sigma) containing 10% fetal bovine serum, 100-units/mL penicillin, and 100-μg/mL streptomycin. Culturing was performed at 37° C. in a humidified atmosphere containing 5% CO2.
[^3H]-labeled hyaluronic acid ([^3H]HA) was prepared though a slightly modified method of Underhill, Toole, et al. (C. B. Underhill and B. P. Toole, Binding of hyaluronate to the surface of cultured cells. J. Cell Biol. 82 (1979) 475-84). Specifically, confluent Detroit 551 fibroblasts were incubated with D-[1,6-^3H(N)]glucosamine hydrochloride (10-μCi/mL). A conditioned medium was pooled, and the incubated cells were digested with pronase (0.3 mg/mL) and precipitated in ethanol. The formed pellets were suspended in water and re-precipitated with 1.5% cetylpyridinium chloride and 0.03M NaCl. The thus-formed pellets were dissolved in 0.1% cetylpyridinium chloride and 0.4M NaCl and re-precipitated again in ethanol. The thus-formed pellets were suspended in 5 mM phosphate buffer (pH: 7.5), and the suspension was applied to a Sepharose CL-2B column (10×600 mm) equilibrated with 0.5% NaCl. Vo fractions were collected, and the product was precipitated in ethanol. Finally, the product was dissolved in 5 mM phosphate buffer (pH: 7.5).
Cells were cultured in a medium containing [^3H]HA (40,000 dpm/mL) to confluent. After incubation, the medium was removed and applied to a Sepharose CL-2B column (10×600 mm). The medium was eluted with 0.5% NaCl at 0.65 mL/min, and fractions (each 2.55 mL) were collected. The radioactivity of each fraction was measured.
siRNAs (TT2 cohesive end, non-modified) each having 25 nucleotides with respect to KIAA1199, HYAL2, CD44, and a negative control were purchased from Invitrogen (Carlsbad, Calif.). Each siRNA was incorporated by use of Lipofectamine RNAiMAX (Invitrogen, Carlsbad, Calif.).

KIAA1199 mRNA [3] = conditions: stimulation with histamine
Procedure: Western blotting was performed through a standard method. In real-time PCR, total RNA was separated by use of RNeasy (Qiagen), and cDNA was synthesized by means of High Capacity cDNA Archive kit (Applied Biosystems, Foster City, Calif.). Real-time PCR was performed through TaqMan (registered trademark) technique and by means of an apparatus ABI Prism 7700 (Applied Biosystems, Foster City, Calif.).

[4] = after stimulation with histamine

| Molecule | decomposition of hyaluronic acid in KIAA1199/HEK293 cells (KIAA1199/HEK293 cells) | expression of KIAA1199 mRNA in RA synovial cells (KIAA1199 mRNA [1]) | other results |
| --- | --- | --- | --- |
| CCN1C(=O)C=CC1=O [N-ethylmaleimide] | inhibited |  |  |
| IL-6: cytokine, RA-related inflammatory mediator |  | stimulate expression |  |
| O=c1cc(-c2ccc(O)c(O)c2)oc2c([C@@H]3O[C@H](CO)[C@@H](O)[C@H](O)[C@H]3O)c(O)cc(O)c12 [orientin] | inhibited |  |  |
| TGF-[3]: TGF-β1, down-regulates hyaluronic acid decomposition in fibroblasts |  |  | decomposition of hyaluronic acid by cultured fibroblasts [2]: down-regulated |
| heparin |  |  | decomposition of hyaluronic acid by cultured fibroblasts [2]: inhibited |
| CCCCC[C@H](O)/C=C/[C@H]1[C@H](O)CC(=O)[C@@H]1C/C=C\CCCC(=O)O [PGE2, prostaglandin E2] |  | stimulate expression |  |
| CO/C1=C\C(C)=C\[C@@H](C)[C@@H](O)[C@@H](C)C/C(C)=C/C=C/[C@H](OC)[C@@H]([C@@H](C)[C@@H](O)[C@H](C)[C@@]2(O)C[C@@H](O)[C@H](C)[C@@H](C(C)C)O2)OC1=O [bafilomycin A1] | inhibited |  |  |
| CC[C@@]1([C@@H]2O[C@@H]([C@H]3O[C@@](O)(CO)[C@H](C)C[C@@H]3C)C[C@@H]2C)CC[C@H]([C@]2(C)CC[C@]3(C[C@H](O)[C@@H](C)[C@@H]([C@@H](C)[C@@H](OC)[C@H](C)C(=O)O)O3)O2)O1 [monensin] | inhibited |  |  |
| O=C(O)CN(CCN(CC(=O)O)CC(=O)O)CC(=O)O [EDTA] | inhibited |  |  |
| CN(C)CCCN1c2ccccc2Sc2ccc(Cl)cc21 [chlorpromazine] | inhibited |  |  |
| NCCc1c[nH]cn1 [histamine] |  |  | Vmax of hyaluronic acid decomposition by cells [2, 4]: 1,370 μg/10^5 cells/3 days; apparent Km of hyaluronic acid decomposition by cells [2, 4]: 1,500 μg/mL; increase of Vmax of hyaluronic acid decomposition ([2]; after stimulation with histamine, versus unstimulated cells): 3.7 times; decomposition of hyaluronic acid by cultured fibroblasts [2]: up-regulated; increase in expression level of KIAA1199 mRNA (KIAA1199 mRNA [3]): 3.7 times |
| IL-β: cytokine, RA-related inflammatory mediator (probably IL-1β) |  | stimulate expression |  |
| B1 |  | stimulate expression |  |
